Results taken from US8809347B2, “Bicyclic aryl and bicyclic heteroaryl substituted triazoles useful as AXL inhibitors” (Rigel Pharmaceuticals, Inc., priority 2006, dated 2014).

Molecular target: T1, Axl (Homo sapiens, UniProt P30530)
T1 construct: Cells: Hela cells; endogenous in cells; host or cells: HeLa cells
T1 sequence (P30530 26-894): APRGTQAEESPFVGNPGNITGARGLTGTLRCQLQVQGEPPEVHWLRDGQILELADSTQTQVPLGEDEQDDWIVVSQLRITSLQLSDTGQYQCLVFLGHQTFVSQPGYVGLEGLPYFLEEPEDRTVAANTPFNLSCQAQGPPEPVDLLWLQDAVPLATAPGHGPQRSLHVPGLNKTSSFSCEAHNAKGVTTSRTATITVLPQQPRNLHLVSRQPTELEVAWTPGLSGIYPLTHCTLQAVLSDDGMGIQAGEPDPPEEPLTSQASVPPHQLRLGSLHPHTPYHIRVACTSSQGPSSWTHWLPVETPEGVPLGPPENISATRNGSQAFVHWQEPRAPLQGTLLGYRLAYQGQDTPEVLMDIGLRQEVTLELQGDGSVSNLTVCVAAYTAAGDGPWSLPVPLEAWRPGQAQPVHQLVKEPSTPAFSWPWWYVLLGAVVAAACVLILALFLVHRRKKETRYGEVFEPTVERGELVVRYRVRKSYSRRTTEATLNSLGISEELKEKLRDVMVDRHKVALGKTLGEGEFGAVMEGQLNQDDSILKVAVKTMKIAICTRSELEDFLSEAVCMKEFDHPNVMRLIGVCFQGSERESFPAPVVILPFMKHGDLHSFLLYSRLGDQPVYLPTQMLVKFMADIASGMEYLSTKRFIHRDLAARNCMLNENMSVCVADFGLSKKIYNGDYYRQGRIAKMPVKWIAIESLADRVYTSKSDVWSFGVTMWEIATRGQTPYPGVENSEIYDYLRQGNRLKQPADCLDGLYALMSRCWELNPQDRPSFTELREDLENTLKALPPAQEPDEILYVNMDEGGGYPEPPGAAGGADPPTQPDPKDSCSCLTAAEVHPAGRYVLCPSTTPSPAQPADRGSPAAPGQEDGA
Experiment: Phospho-Akt in-cell Western assay (inhibition of Axl activity)
Type: cell-based
Conditions: Hela cells; 1 hr pre-treatment; stimulation by Axl-antibody cross-linking; phospho-Akt chemiluminescence normalized to relative cell number
Description: The compounds of the invention were tested in the following assay for their ability to inhibit Axl activity.
Phospho-Akt in-Cell Western Assay
• Cell culture plate: 96 well assay plate (Corning 3610), white, clear bottom, tissue-culture treated. • Cells: Hela cells. • Starvation medium: For Axl stimulation: 0.5% FCS (fetal calf serum) in DMEM, plus Axl/Fc (extracellular domain of AXL fused to immunoglobulin Fc region) (R&D, 154-AL) 500 ng/mL. • For EGF (epidermal growth factor) stimulation: 0.5% FCS in DMEM (Dulbecco's modified Eagles medium). • Poly-L-Lysine 0.01% solution (the working solution): […], dilute In PBS (phosphate buffered saline). • Axl antibody cross-linking: • 1st: Mouse anti-Axl (R&D, MAB154). • 2nd: Biotin-SP-conjugated AffiniPure goat anti-mouse IgG (H+ L) (Jackson ImmunoResearch #115-065-003). • Fixing buffer: 4% formaldehyde in PBS. • Wash buffer: 0.1% TritonX-100 in PBS. • Quenching buffer: 3% H2O2, 0.1% Azide in wash buffer, Azide and hydrogen peroxide (H2O2) are added fresh. • Blocking buffer: 5% BSA in TBST (tris buffered saline plus 0.1% Tween 20). • Primary antibody: Rabbit anti-human Phospho-Akt antibody (Cell Signaling 9271): 1×250 diluted in blocking buffer. • Secondary antibody: HRP (horse radish peroxidase)-conjugated Goat anti-Rabbit secondary, stock solution: Jackson ImmunoResearch (Goat anti-Rabbit HRP, #111-035-144) 1:1 diluted in glycerol, store at −20° C. The working solution: 1×2000 dilution of stock in blocking buffer. • Chemiluminescent working solution (Pierce, 37030): SuperSignal ELISA (enzyme linked immunosorbant assay) Pico Chemiluminescent substrate. • Crystal Violet solution: Stock: 2.5% Crystal violet in methanol, filtered and kept at ambient temperature. The working solution: dilute the stock 1:20 with PBS immediately before use. • 10% SDS: working solution: 5% SDS (sodium dodecylsulfate), diluted in PBS Methods: Day 1:
A 96 well TC (tissue culture treated) plate was coated with 10 μg/mL poly-L-Lysine at 37° C. for 30 min, washed twice with PBS, and air-dried for 5 minutes before cells were added. Hela cells were seeded at 10,000 cells/well and the cells were starved in 100 μL starvation medium containing Axl/Fc for 24 hrs.
The cells were pre-treated with test compounds by adding 100 μL of 2× test compound to the starvation medium on the cells. The cells were incubated at 37° C. for 1 hr before stimulation.
The cells were stimulated by Axl-antibody cross-linking as follows: A 5× 1st/2nd Axl antibody mixture was made (37.5 μg/mL 1st/100 μg/mL 2nd) in starvation medium and nutated at 4° C. with thorough mixing for 1-2 hours for clustering. The resulting mix was warmed to 37° C. 50 μL of 5× Axl 1st/2nd of antibody cluster was added to the cells and the cells were incubated at 37° C. for 5 min.
After 5 minutes stimulation, the plate was flicked to remove medium and the plate was tapped onto paper towels. Formaldehyde (4.0% in PBS, 100 μL) was added to fix the cells and the cells were incubated at ambient temperature for 20 min without shaking.
The cells were washed with a plate washer buffer to remove the formaldehyde solution. The plate was flicked to removed excess wash buffer and tapped onto paper towels. Quenching buffer (100 μL) was added to each well and the cells were incubated at ambient temperature for 20 minutes without shaking.
The cells were washed with a plate washer buffer to remove the quenching buffer. Blocking buffer (100 μL) was added and the cells were incubated at ambient temperature for at least an hour with gentle shaking.
The cells were washed with a plate washer buffer and diluted primary antibody (50 μL) was added to each well (blocking buffer was added to the negative control wells instead). The plates were incubated overnight at 4° C. with gentle shaking.
The wash buffer was removed, diluted secondary antibody (100 μL) was added, and the cells were incubated at ambient temperature for 1 hour with gentle shaking. […]

IC50 [nM]	SMILES
< 1000	Cc1csc2c(-n3nc(Nc4cnc5c(c4)CCC(N4CCCC4)CCC5)nc3N)nc(Cl)nc12 (stereo not drawn) [Compound 37, 1-(2-chloro-7-methylthieno[3,2-d]pyrimidin-4-yl)-N^3-(7-(pyrrolidin-1-yl)-5,6,7,8,9,10-hexahydrocycloocta[b]pyridin-3-yl)-1H-1,2,4-triazole-3,5-diamine]
> 20000	Nc1nc(Nc2ccc(N3CCN(c4ccc(F)cc4)CC3)cc2)nn1-c1ncc2c(n1)CCCCCC2 [Compound 13, N^3-(4-(4-(4-fluorophenyl)piperazin-1-yl)phenyl)-1-(5,6,7,8,9,10-hexahydrocycloocta[d]pyrimidin-2-yl)-1H-1,2,4-triazole-3,5-diamine]
< 1000	Cc1csc2c(-n3nc(Nc4ccc5c(c4)OCCCCO5)nc3N)nc(Cl)nc12 [Compound 28, 1-(2-chloro-7-methylthieno[3,2-d]pyrimidin-4-yl)-N^3-(2,3,4,5-tetrahydrobenzo[b][1,4]dioxocin-8-yl)-1H-1,2,4-triazole-3,5-diamine]
< 1000	Cc1csc2c(-n3nc(Nc4cnc5c(c4)CCC(N4CCN(C)CC4)CCC5)nc3N)ncnc12 (stereo not drawn) [Compound 44, N^3-(7-(4-methylpiperazin-1-yl)-5,6,7,8,9,10-hexahydrocycloocta[b]pyridin-3-yl)-1-(7-methylthieno[3,2-d]pyrimidin-4-yl)-1H-1,2,4-triazole-3,5-diamine]
< 1000	Nc1nc(Nc2ccc(N3CCN(C4CCCCC4)CC3)cc2)nn1-c1ncc2c(n1)CCCCCC2 [Compound 5, N^3-(4-(4-cyclohexylpiperazin-1-yl)phenyl)-1-(5,6,7,8,9,10-hexahydrocycloocta[d]pyrimidin-2-yl)-1H-1,2,4-triazole-3,5-diamine]
< 1000	Cc1csc2c(-n3nc(Nc4cnc5c(c4)CCC(=O)CCC5)nc3N)nc(Cl)nc12 [Compound 34, 1-(2-chloro-7-methylthieno[3,2-d]pyrimidin-4-yl)-N^3-(7-oxo-5,6,8,9,10-pentahydrocycloocta[b]pyridin-3-yl)-1H-1,2,4-triazole-3,5-diamine]
< 1000	Cc1csc2c(-n3nc(Nc4ccc5c(c4)CCCN(C4CC6CCC4C6)CC5)nc3N)ncnc12 (stereo not drawn) [Compound 42, N^3-(3-(bicyclo[2.2.1]heptan-2-yl)-1,2,3,4,5,6-hexahydrobenzo[d]azocin-8-yl)-1-(7-methylthieno[3,2-d]pyrimidin-4-yl)-1H-1,2,4-triazole-3,5-diamine]
< 1000	Nc1nc(Nc2ccc(N3CC(N4CCCC4)C3)c(F)c2)nn1-c1ncnc2c1CCCCCC2 [Compound 36, N^3-(3-fluoro-4-(3-(pyrrolidin-1-yl)azetidin-1-yl)phenyl)-1-(5,6,7,8,9,10-hexahydrocycloocta[d]pyrimidin-4-yl)-1H-1,2,4-triazole-3,5-diamine]
< 1000	Nc1nc(Nc2ccc(N3CCC(N4CCCC4)CC3)c(F)c2)nn1-c1ncnc2c1CCCCCC2 [Compound 35, N^3-(3-fluoro-4-(4-(pyrrolidin-1-yl)piperidin-1-yl)phenyl)-1-(5,6,7,8,9,10-hexahydrocycloocta[d]pyrimidin-4-yl)-1H-1,2,4-triazole-3,5-diamine]
< 1000	Nc1nc(Nc2ccc3c(c2)CCCN(C2CCCC2)CC3)nn1-c1ncnc2ccc(F)cc12 [Compound 31, N^3-(3-cyclopentyl-1,2,3,4,5,6-hexahydrobenzo[d]azocin-8-yl)-1-(6-fluoroquinazolin-4-yl)-1H-1,2,4-triazole-3,5-diamine]
1000 to 10000	Cc1csc2c(-n3nc(Nc4ccc5c(c4)C(=O)NCCCC5)nc3N)ncnc12 [Compound 49, N^3-(1-oxo-1,2,3,4,5,6-hexahydrobenzo[c]azocin-9-yl)-1-(7-methylthieno[3,2-d]pyrimidin-4-yl)-1H-1,2,4-triazole-3,5-diamine]
> 20000	CN1CCc2ccc(Nc3nc(N)n(-c4ncc5c(n4)CCCCCC5)n3)cc2C1 [Compound 12, 1-(5,6,7,8,9,10-hexahydrocycloocta[d]pyrimidin-2-yl)-N^3-(2-methyl-1,2,3,4-tetrahydroisoquinolin-7-yl)-1H-1,2,4-triazole-3,5-diamine]
< 1000	Nc1nc(Nc2ccc3c(c2)CCN(C2CCCC2)CCC3)nn1-c1nc2ccccc2s1 [Compound 33, 1-(benzo[d]thiazol-2-yl)-N^3-(3-cyclopentyl-1,2,3,4,5,6-hexahydrobenzo[d]azocin-9-yl)-1H-1,2,4-triazole-3,5-diamine]
< 1000	Nc1nc(Nc2ccc(N3CCC(N4CCCC4)CC3)c(F)c2)nn1-c1cc2c(nn1)CCCCCC2 [Compound 17, N^3-(3-fluoro-4-(4-(pyrrolidin-1-yl)piperidin-1-yl)phenyl)-1-(5,6,7,8,9,10-hexahydrocycloocta[c]pyridazin-3-yl)-1H-1,2,4-triazole-3,5-diamine]
< 1000	COc1cc2ncnc(-n3nc(Nc4ccc5c(c4)CCCN(C4CCCC4)CC5)nc3N)c2cc1OC [Compound 27, N^3-(3-cyclopentyl-1,2,3,4,5,6-hexahydro-benzo[d]azocin-8-yl)-1-(6,7-dimethoxy-quinazolin-4-yl)-1H-[1,2,4]triazole-3,5-diamine]
< 1000	Nc1nc(Nc2ccc(N3CCN(C4CCCCC4)CC3)cc2)nn1-c1cc2c(nn1)CCCCCC2 [Compound 16, N^3-(4-(4-cyclohexylpiperazin-1-yl)phenyl)-1-(5,6,7,8,9,10-hexahydrocycloocta[c]pyridazin-3-yl)-1H-1,2,4-triazole-3,5-diamine]
< 1000	Nc1nc(Nc2ccc(OCCN3CCCC3)cc2)nn1-c1ccc2c(n1)CCCCCC2 [Compound 22, 1-(5,6,7,8,9,10-hexahydrocycloocta[b]pyridin-2-yl)-N^3-(4-(2-(pyrrolidin-1-yl)ethoxy)phenyl)-1H-1,2,4-triazole-3,5-diamine]
< 1000	CN1CCN(c2ccc(Nc3nc(N)n(-c4ccc5c(n4)CCCCCC5)n3)cc2)CC1 [Compound 23, 1-(5,6,7,8,9,10-hexahydrocycloocta[b]pyridin-2-yl)-N^3-(4-(4-methylpiperazin-1-yl)phenyl)-1H-1,2,4-triazole-3,5-diamine]
